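Grown in 96-well plates, cells were treated for 48 hours with each compound at five concentrations. Insufficient inhibition: endpoint recorded as highest concentration tested. GI50 marks 50% less growth. TGI denotes the concentration required for complete inhibition of growth.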
Assays:
Test in all cases: inhibition of tumour cell growth, NCI panel, 48 h
[1] = tested on: 786-0 renal
[2] = tested on: A498 renal
[3] = tested on: A549 NSCLC
[4] = tested on: ACHN renal
[5] = tested on: BT-549 breast
[6] = tested on: CAKI-1 renal
[7] = tested on: CCRF-CEM leukemia
[8] = tested on: COLO 205 colon
[9] = tested on: DU-145 prostate
[10] = tested on: EKVX NSCLC
[11] = tested on: HCC-2998 colon
[12] = tested on: HCT-116 colon
[13] = tested on: HCT-15 colon
[14] = tested on: HL-60(TB) leukemia
[15] = tested on: HOP-62 NSCLC
[16] = tested on: HOP-92 NSCLC
[17] = tested on: HS 578T breast
[18] = tested on: HT29 colon
[19] = tested on: IGROV1 ovarian
[20] = tested on: K-562 leukemia
[21] = tested on: KM12 colon
[22] = tested on: LOX IMVI melanoma
[23] = tested on: M14 melanoma
[24] = tested on: MALME-3M melanoma
[25] = tested on: MCF7 breast
[26] = tested on: MDA-MB-231 breast
[27] = tested on: MDA-MB-435
[28] = tested on: MOLT-4 leukemia
[29] = tested on: NCI-H226 lung
[30] = tested on: NCI-H23 lung
[31] = tested on: NCI-H460 lung
[32] = tested on: NCI-H522 lung
[33] = tested on: NCI/ADR-RES ovarian
[34] = tested on: OVCAR-3 ovarian
[35] = tested on: OVCAR-4 ovarian
[36] = tested on: OVCAR-5 ovarian
[37] = tested on: OVCAR-8 ovarian
[38] = tested on: PC-3 prostate
[39] = tested on: RPMI-8226 leukemia
[40] = tested on: RXF 393 renal
[41] = tested on: SF-268 CNS
[42] = tested on: SF-295 CNS
[43] = tested on: SF-539 CNS
[44] = tested on: SK-MEL-2 melanoma
[45] = tested on: SK-MEL-28 melanoma
[46] = tested on: SK-MEL-5 melanoma
[47] = tested on: SK-OV-3 ovarian
[48] = tested on: SN12C renal
[49] = tested on: SNB-19 CNS
[50] = tested on: SNB-75 CNS
[51] = tested on: SR leukemia
[52] = tested on: SW-620 colon
[53] = tested on: T-47D breast
[54] = tested on: TK-10 renal
[55] = tested on: U251 CNS
[56] = tested on: UACC-257 melanoma
[57] = tested on: UACC-62 melanoma
[58] = tested on: UO-31 renal

For `Nc1nccc(-c2c(-c3ccc(F)cc3)ncn2CCCN2CCOCC2)n1`, the GI50 [1] was over 25 µM, the TGI [1] was over 25 µM and the GI50 [2] was over 19.2 µM. The TGI [2] was over 25 µM, the GI50 [3] was over 25 µM and the TGI [3] was over 25 µM. It also gave a GI50 [4] of 19.4 µM, a TGI [4] of over 25 µM and a GI50 [5] of over 25 µM. For the same molecule, the TGI [5] was over 25 µM, the GI50 [6] was over 25 µM and the TGI [6] was over 25 µM. The GI50 [7] was over 25 µM, the TGI [7] was over 25 µM and the GI50 [8] was over 25 µM. For the same molecule, the TGI [8] was over 25 µM, the GI50 [9] was over 25 µM and the TGI [9] was over 25 µM. The GI50 [10] was over 25 µM, the TGI [10] was over 25 µM and the GI50 [11] was over 25 µM. The TGI [11] was over 25 µM, the GI50 [12] was over 25 µM and the TGI [12] was over 25 µM. The GI50 [13] was over 25 µM, the TGI [13] was over 25 µM and the GI50 [14] was over 25 µM. It also gave a TGI [14] of over 25 µM, a GI50 [15] of over 25 µM and a TGI [15] of over 25 µM. It also gave a GI50 [16] of over 21.7 µM, a TGI [16] of over 25 µM and a GI50 [17] of over 25 µM. The TGI [17] was over 25 µM, the GI50 [18] was over 25 µM and the TGI [18] was over 25 µM. It also gave a GI50 [19] of over 25 µM, a TGI [19] of over 25 µM and a GI50 [20] of over 25 µM. It also gave a TGI [20] of over 25 µM, a GI50 [21] of over 25 µM and a TGI [21] of over 25 µM. For the same molecule, the GI50 [22] was over 25 µM, the TGI [22] was over 25 µM and the GI50 [23] was over 25 µM. For the same molecule, the TGI [23] was over 25 µM, the GI50 [24] was over 25 µM and the TGI [24] was over 25 µM. It also gave a GI50 [25] of over 21.6 µM, a TGI [25] of over 25 µM and a GI50 [26] of over 25 µM. It also gave a TGI [26] of over 25 µM, a GI50 [27] of over 25 µM and a TGI [27] of over 25 µM. For the same molecule, the GI50 [28] was over 25 µM, the TGI [28] was over 25 µM and the GI50 [29] was over 25 µM. It also gave a TGI [29] of over 25 µM, a GI50 [30] of over 25 µM and a TGI [30] of over 25 µM. It also gave a GI50 [31] of over 25 µM, a TGI [31] of over 25 µM and a GI50 [32] of over 25 µM. The TGI [32] was over 25 µM, the GI50 [33] was over 25 µM and the TGI [33] was over 25 µM. For the same molecule, the GI50 [34] was over 25 µM, the TGI [34] was over 25 µM and the GI50 [35] was over 25 µM. It also gave a TGI [35] of over 25 µM, a GI50 [36] of over 25 µM and a TGI [36] of over 25 µM. For the same molecule, the GI50 [37] was over 25 µM, the TGI [37] was over 25 µM and the GI50 [38] was over 25 µM. It also gave a TGI [38] of over 25 µM, a GI50 [39] of over 25 µM and a TGI [39] of over 25 µM. For the same molecule, the GI50 [40] was over 17 µM, the TGI [40] was over 25 µM and the GI50 [41] was over 25 µM. It also gave a TGI [41] of over 25 µM, a GI50 [42] of over 25 µM and a TGI [42] of over 25 µM. The GI50 [43] was over 25 µM, the TGI [43] was over 25 µM and the GI50 [44] was over 25 µM. It also gave a TGI [44] of over 25 µM, a GI50 [45] of over 25 µM and a TGI [45] of over 25 µM. The GI50 [46] was over 25 µM, the TGI [46] was over 25 µM and the GI50 [47] was over 25 µM. The TGI [47] was over 25 µM, the GI50 [48] was over 25 µM and the TGI [48] was over 25 µM. The GI50 [49] was over 25 µM, the TGI [49] was over 25 µM and the GI50 [50] was over 25 µM. The TGI [50] was over 25 µM, the GI50 [51] was over 25 µM and the TGI [51] was over 25 µM. For the same molecule, the GI50 [52] was over 25 µM, the TGI [52] was over 25 µM and the GI50 [53] was over 25 µM. The TGI [53] was over 25 µM, the GI50 [54] was over 25 µM and the TGI [54] was over 25 µM. The GI50 [55] was over 25 µM, the TGI [55] was over 25 µM and the GI50 [56] was over 25 µM. It also gave a TGI [56] of over 25 µM, a GI50 [57] of over 25 µM and a TGI [57] of over 25 µM. It also gave a GI50 [58] of 11.6 µM and a TGI [58] of over 25 µM.

`COC(=O)[C@]12CCC(C)(C)C[C@H]1C1=CC[C@@H]3[C@@]4(C)C/C(=C/c5cccnc5)C(=O)C(C)(C)[C@@H]4CC[C@@]3(C)[C@]1(C)CC2` showed a GI50 [1] of 3.58 µM, a TGI [1] of 17.4 µM and a GI50 [2] of 11.6 µM. For the same molecule, the TGI [2] was 26.4 µM, the GI50 [3] was 11.9 µM and the TGI [3] was over 100 µM. The GI50 [4] was 8.05 µM, the TGI [4] was 24.5 µM and the GI50 [5] was 2.56 µM. The TGI [5] was 7.93 µM, the GI50 [6] was 6.87 µM and the TGI [6] was 22.3 µM. It also gave a GI50 [7] of 2.81 µM, a TGI [7] of 13.7 µM and a GI50 [8] of 6.51 µM. For the same molecule, the TGI [8] was 25.3 µM, the GI50 [9] was 8.86 µM and the TGI [9] was over 100 µM. The GI50 [10] was 10.9 µM, the TGI [10] was 31.1 µM and the GI50 [11] was 5.56 µM. It also gave a TGI [11] of 19.5 µM, a GI50 [12] of 2.71 µM and a TGI [12] of 12.1 µM. It also gave a GI50 [13] of 4.58 µM, a TGI [13] of 30.5 µM and a GI50 [14] of 2.06 µM. It also gave a TGI [14] of 5.2 µM, a GI50 [15] of 13.6 µM and a TGI [15] of 67 µM. The GI50 [16] was 1.87 µM, the TGI [16] was 8.41 µM and the GI50 [17] was 22.7 µM. It also gave a TGI [17] of over 100 µM, a GI50 [18] of 5 µM and a TGI [18] of 65.9 µM. It also gave a GI50 [19] of 5.2 µM, a TGI [19] of 31.5 µM and a GI50 [20] of 3.2 µM. The TGI [20] was over 100 µM, the GI50 [21] was 5.06 µM and the TGI [21] was 19.9 µM. For the same molecule, the GI50 [22] was 4.63 µM, the TGI [22] was 17.8 µM and the GI50 [23] was 3.63 µM. For the same molecule, the TGI [23] was 13.4 µM, the GI50 [24] was 5.24 µM and the TGI [24] was 18.2 µM. For the same molecule, the GI50 [25] was 3 µM, the TGI [25] was 14.7 µM and the GI50 [26] was 10.2 µM. The TGI [26] was 32.2 µM, the GI50 [27] was 5.05 µM and the TGI [27] was 20 µM. It also gave a GI50 [28] of 2.12 µM, a TGI [28] of 6.17 µM and a GI50 [29] of 3.97 µM. For the same molecule, the TGI [29] was 17.9 µM, the GI50 [30] was 8.05 µM and the TGI [30] was 29.8 µM. The GI50 [31] was 5.53 µM, the TGI [31] was 26.6 µM and the GI50 [32] was 8.58 µM. For the same molecule, the TGI [32] was 28.7 µM, the GI50 [33] was 6.75 µM and the TGI [33] was 32.5 µM. For the same molecule, the GI50 [34] was 4.16 µM, the TGI [34] was 27.9 µM and the GI50 [35] was 11.3 µM. For the same molecule, the TGI [35] was over 100 µM, the GI50 [36] was 14.1 µM and the TGI [36] was 38.2 µM. It also gave a GI50 [37] of 3.82 µM, a TGI [37] of 60.8 µM and a GI50 [38] of 2.37 µM. For the same molecule, the TGI [38] was 10.4 µM, the GI50 [39] was 2.31 µM and the TGI [39] was 6.39 µM. The GI50 [40] was 4.25 µM, the TGI [40] was 17.5 µM and the GI50 [41] was 11.8 µM. The TGI [41] was 54 µM, the GI50 [42] was 9.67 µM and the TGI [42] was 40.4 µM. The GI50 [43] was 7.43 µM, the TGI [43] was 20.7 µM and the GI50 [44] was 11.6 µM. It also gave a TGI [44] of 32.1 µM, a GI50 [45] of 6.89 µM and a TGI [45] of 20 µM. It also gave a GI50 [46] of 5.58 µM, a TGI [46] of 17.9 µM and a GI50 [47] of 27.5 µM. It also gave a TGI [47] of over 100 µM, a GI50 [48] of 4.86 µM and a TGI [48] of 23.4 µM. For the same molecule, the GI50 [49] was 15.1 µM, the TGI [49] was 77.4 µM and the GI50 [50] was 17.6 µM. The TGI [50] was 48.5 µM, the GI50 [51] was 4.52 µM and the TGI [51] was 93.6 µM. It also gave a GI50 [52] of 5.74 µM, a TGI [52] of 33.3 µM and a GI50 [53] of 2.96 µM. For the same molecule, the TGI [53] was 28 µM, the GI50 [54] was 21.4 µM and the TGI [54] was 55.5 µM. The GI50 [55] was 13.5 µM, the TGI [55] was 46.9 µM and the GI50 [56] was 12.5 µM. The TGI [56] was 42.8 µM, the GI50 [57] was 2.89 µM and the TGI [57] was 12.8 µM. It also gave a GI50 [58] of 3.21 µM and a TGI [58] of 24.4 µM.

From PubChem BioAssay (NCI)
